Data from patent publication US10750743B2, “Pyridazinone herbicides” (E.I. DU PONT DE NEMOURS AND COMPANY, priority 2015, dated 2020).

Legend:
Type in all cases: in vivo
[1] = system: barnyardgrass (Echinochloa crus-galli); assay: Test A preemergence, directed soil spray, visual injury rating; conditions: 0 is no effect, 100 is complete control
Method in brief: (§1)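 Seeds sown in a loam soil–sand blend received a directed preemergence soil spray of test chemical in a non-phytotoxic solvent mixture with surfactant. Postemergence plants were sprayed at 2 to 10 cm, one- to two-leaf stage. After approximately 10 d in greenhouse, injury was visually rated 0 (no effect) to 100 (complete control) against untreated controls.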

[2] = system: foxtail, giant (giant foxtail, Setaria faberii); assay: as above; conditions: 0 is no effect, 100 is complete control
Method in brief: as §1

kochia (Kochia scoparia) [3] = assay: as above; conditions: 0 is no effect, 100 is complete control
Method in brief: as §1

[4] = system: pigweed (Amaranthus retroflexus); assay: as above; conditions: 0 is no effect, 100 is complete control
Method in brief: as §1

[5] = system: ragweed (common ragweed, Ambrosia elatior); assay: as above; conditions: 0 is no effect, 100 is complete control
Method in brief: as §1

[6] = system: ryegrass, It. (Italian ryegrass, Lolium multiflorum); assay: as above; conditions: 0 is no effect, 100 is complete control
Method in brief: as §1

[7] = system: barnyardgrass (Echinochloa crus-galli); assay: Test B flooded paddy test, visual rating; conditions: Flood, 250 g ai/ha, applied to paddy water, rated after 13 to 15 d
Method in brief: (§2)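 Plants at the 2-leaf stage were flooded to 3 cm above soil, and test compounds were applied directly into the paddy water, which was held at that depth throughout. After 13 to 15 d in a greenhouse, injury was rated visually against untreated controls on a 0–100 scale (0 no effect, 100 complete control).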

[8] = system: ducksalad (Heteranthera limosa); assay: Test B flooded paddy test, visual rating; conditions: Flood, 250 g ai/ha, applied to paddy water, rated after 13 to 15 d
Method in brief: as §2

rice (Oryza sativa) = assay: Test B flooded paddy test, visual rating; conditions: Flood, 250 g ai/ha, applied to paddy water, rated after 13 to 15 d
Method in brief: as §2

[9] = system: sedge, umbrella (small-flower umbrella sedge, Cyperus difformis); assay: Test B flooded paddy test, visual rating; conditions: Flood, 250 g ai/ha, applied to paddy water, rated after 13 to 15 d
Method in brief: as §2

[10] = system: barnyardgrass (Echinochloa crus-galli); assay: Test A postemergence application, visual injury rating; conditions: 0 to 100 scale, 0 no effect, 100 complete control
Method in brief: as §1

[11] = system: blackgrass (Alopecurus myosuroides); assay: as above; conditions: 0 to 100 scale, 0 no effect, 100 complete control
Method in brief: as §1

corn (Zea mays) = assay: as above; conditions: 0 to 100 scale, 0 no effect, 100 complete control
Method in brief: as §1

[12] = system: foxtail, giant (giant foxtail, Setaria faberii); assay: as above; conditions: 0 to 100 scale, 0 no effect, 100 complete control
Method in brief: as §1

[13] = system: galium (catchweed bedstraw, Galium aparine); assay: as above; conditions: 0 to 100 scale, 0 no effect, 100 complete control
Method in brief: as §1

kochia (Kochia scoparia) [14] = assay: as above; conditions: 0 to 100 scale, 0 no effect, 100 complete control
Method in brief: as §1

[15] = system: pigweed (Amaranthus retroflexus); assay: as above; conditions: 0 to 100 scale, 0 no effect, 100 complete control
Method in brief: as §1

[16] = system: ragweed (common ragweed, Ambrosia elatior); assay: as above; conditions: 0 to 100 scale, 0 no effect, 100 complete control
Method in brief: as §1

[17] = system: ryegrass, It. (Italian ryegrass, Lolium multiflorum); assay: as above; conditions: 0 to 100 scale, 0 no effect, 100 complete control
Method in brief: as §1

[18] = system: wheat (Triticum aestivum); assay: as above; conditions: 0 to 100 scale, 0 no effect, 100 complete control
Method in brief: as §1

| SMILES | Plant response rating (0 to 100 scale), Barnyardgrass ([1]; 31 g ai/ha) | Plant response rating (0 to 100 scale), Barnyardgrass ([1]; 125 g ai/ha) | Plant response rating (0 to 100 scale), Foxtail, Giant ([2]; 31 g ai/ha) | Plant response rating (0 to 100 scale), Foxtail, Giant ([2]; 125 g ai/ha) | Plant response rating (0 to 100 scale), Kochia (kochia (Kochia scoparia) [3]; 31 g ai/ha) | Plant response rating (0 to 100 scale), Kochia (kochia (Kochia scoparia) [3]; 125 g ai/ha) | Plant response rating (0 to 100 scale), Pigweed ([4]; 31 g ai/ha) | Plant response rating (0 to 100 scale), Pigweed ([4]; 125 g ai/ha) | Plant response rating (0 to 100 scale), Ragweed ([5]; 31 g ai/ha) | Plant response rating (0 to 100 scale), Ragweed ([5]; 125 g ai/ha) | Plant response rating (0 to 100 scale), Ryegrass, It. ([6]; 31 g ai/ha) | Plant response rating (0 to 100 scale), Ryegrass, It. ([6]; 125 g ai/ha) | Barnyardgrass plant response rating (0 to 100 scale, 0 is no effect, 100 is complete control) [7] | Ducksalad plant response rating (0 to 100 scale, 0 is no effect, 100 is complete control) [8] | Rice plant response rating (0 to 100 scale, 0 is no effect, 100 is complete control) (rice (Oryza sativa)) | Sedge, Umbrella plant response rating (0 to 100 scale, 0 is no effect, 100 is complete control) [9] | Barnyardgrass plant response rating ([10]; 31 g ai/ha) | Barnyardgrass plant response rating ([10]; 125 g ai/ha) | Blackgrass plant response rating ([11]; 31 g ai/ha) | Blackgrass plant response rating ([11]; 125 g ai/ha) | further results |
| --- | --- | --- | --- | --- | --- | --- | --- | --- | --- | --- | --- | --- | --- | --- | --- | --- | --- | --- | --- | --- | --- |
| CCC(=O)Oc1c(C)nn(C)c(=O)c1-c1ccc(Cl)c2ccsc12 [Compound 36] | 0 | 0 | 0 | 0 | 0 | 0 | 0 | 90 | 0 | 0 | 20 | 90 | 0 | 0 | 0 | 80 | 0 | 10 | 0 | 0 | Corn plant response rating (corn (Zea mays); 31 g ai/ha): 0; Corn plant response rating (corn (Zea mays); 125 g ai/ha): 0; Foxtail, Giant plant response rating ([12]; 31 g ai/ha): 0; Foxtail, Giant plant response rating ([12]; 125 g ai/ha): 0; Galium plant response rating ([13]; 31 g ai/ha): 90; Galium plant response rating ([13]; 125 g ai/ha): 100; Kochia plant response rating (kochia (Kochia scoparia) [14]; 31 g ai/ha): 20; Kochia plant response rating (kochia (Kochia scoparia) [14]; 125 g ai/ha): 30; Pigweed plant response rating ([15]; 31 g ai/ha): 0; Pigweed plant response rating ([15]; 125 g ai/ha): 30; Ragweed plant response rating ([16]; 31 g ai/ha): 0; Ragweed plant response rating ([16]; 125 g ai/ha): 0; Ryegrass, It. plant response rating ([17]; 31 g ai/ha): 30; Ryegrass, It. plant response rating ([17]; 125 g ai/ha): 80; Wheat plant response rating ([18]; 31 g ai/ha): 0; Wheat plant response rating ([18]; 125 g ai/ha): 0 |
| Cc1nn(C)c(=O)c(-c2ccc(Cl)c3sc(Br)cc23)c1O [Compound 37] | 0 | 0 | 0 | 0 | 0 | 0 | 0 | 0 | 0 | 50 | 0 | 0 | 0 | 0 | 0 | 0 | 0 | 0 | 0 | 0 | Corn plant response rating (corn (Zea mays); 31 g ai/ha): 0; Corn plant response rating (corn (Zea mays); 125 g ai/ha): 0; Foxtail, Giant plant response rating ([12]; 31 g ai/ha): 0; Foxtail, Giant plant response rating ([12]; 125 g ai/ha): 0; Galium plant response rating ([13]; 31 g ai/ha): 20; Galium plant response rating ([13]; 125 g ai/ha): 40; Kochia plant response rating (kochia (Kochia scoparia) [14]; 31 g ai/ha): 0; Kochia plant response rating (kochia (Kochia scoparia) [14]; 125 g ai/ha): 10; Pigweed plant response rating ([15]; 31 g ai/ha): 0; Pigweed plant response rating ([15]; 125 g ai/ha): 0; Ragweed plant response rating ([16]; 31 g ai/ha): 0; Ragweed plant response rating ([16]; 125 g ai/ha): 0; Ryegrass, It. plant response rating ([17]; 31 g ai/ha): 0; Ryegrass, It. plant response rating ([17]; 125 g ai/ha): 0; Wheat plant response rating ([18]; 31 g ai/ha): 0; Wheat plant response rating ([18]; 125 g ai/ha): 0 |
